Reference: patent US9457044B2, “Methods and compositions for wound healing” (CoDa Therapeutics, Inc., priority 2006, dated 2016)

What was measured:
[1] = test system: Cx43 protein; test: Cx43 protein levels / immunostaining at skin wound sites; format: in vivo, mice
Experimental: (§1) Male, 8 week old, ICR mice were used in the following experiments. All the mice were kept under specific pathogen-free conditions in an environmentally controlled clean room at University College London and all the experiments were carried out under UK Home Office regulations. Mice were anaesthetized by halothane inhalation. Four full-thickness excisional wounds of 6 mm diameter were made on the shaved back on either side of the dorsal midline with a 6 mm biopsy punch (Kai Industries). To each pair of wounds a single topical application of 50 μl of 1 μM Cx43 as ODN (SEQ. ID No. 2) (Sigma-Genosys) in 30% Pluronic F-127 gel (Sigma-Aldrich), chilled on ice, was made to one wound, and an identical application of 1 μM sense control sODNs was made to the other. […] R. and Becker, D. L. (2003). Targeting connexin 43 expression accelerates the rate of wound repair. Curr Biol 13, 1697-703). Each wound region was digitally photographed at the indicated time intervals, and the areas of the wounds were calculated. All wound areas were expressed as percentages of the initial wound areas. In some series of experiments, wounds and their surrounding area, including the scab and epithelial margins, were harvested with an 8 mm biopsy punch (Kai Industries) at the indicated time intervals after mice were killed with an overdose of chloroform. A minimum of eight mice were used for each time point examined.
Immunostaining for connexin 43, blood vessels or a smooth muscle actin was carried out on cryostat sections of wounds. Sections were fixed in acetone at 4° C. for 5 minutes prior to blocking for 45 minutes. Incubation in primary antibody was for one hour at the following dilutions: rabbit anti-Cx43 (Sigma) 1:3,000; isoLectin B_FITC 1:2000; von Willebrand Factor (rabbit Dako) 1:400; anti-α smooth muscle actin (Sigma) 1:400 at room temperature. Sections were washed for 3×5 minutes in PBS before a one hour incubation in anti-rabbit-FITC secondary antibody (Dako) 1:200 at room temperature. Washing 3×5 minutes in PBS, in some cases with 1 μM bis-benzimide (Sigma) in the first wash as a nuclear counter stain, and mounted in Citifluor (Citifluor, London, UK). Sections were imaged by confocal microscopy with all parameters kept constant to allow direct comparison of digital images.

[2] = test system: MPO-positive neutrophils; test: Neutrophil recruitment into wound site (anti-MPO staining); format: in vivo, mice; conditions: day 1 and 2, versus control
Experimental: as §1, with “In some series of experiments, wounds and their surrounding area, including the scab and epithelial margins, were harvested with an 8 mm biopsy punch (Kai Industries) at the indicated time intervals after mice were killed with an overdose of chloroform. A minimum of eight mice were used for each time point examined.” left out
A treatment-blinded observer counted MPO-positive neutrophils and F4/80-positive macrophages in the wound bed (defined as the area surrounded by unwounded skin, fascia, regenerated epidermis, and eschar) in 3 random high-power fields of 0.332 mm^2. […]

[3] = test system: Swiss 3T3 fibroblasts; test: Cell migration assay by wounding (fibroblast scrape wound assay); format: cell-based; conditions: 20 μM for two hours before scrape wound; 4 hours after wounding
Experimental: Swiss 3T3 fibroblasts were grown in Dulbecco's modified Eagle's medium (DMEM; Gibco) supplemented with 10% fetal calf serum (Labtech) and 1% penicillinstreptomycin solution (Sigma, Poole) in a 5% CO2 incubator at 37° C. Unless otherwise stated, the cells were maintained in this medium for most experiments. The cells were passaged by trypsinization and used at passages 6-10 at a confluency of Z 90%. Cells were plated on 13 mm glass coverslips in 24-well dishes (Nunc) with 4−5×10^5 cells per well containing 1 ml of medium. Cells reached confluency after 72 hours and were then used for experimentation.
The fibroblast cell assay involved creating a “wound” in a confluent monolayer of fibroblast cells. This widely used in vitro technique mimics the behaviour of migrating cells in vivo (Lampugnani, M. G. (1999) Cell Migration into a wounded area in vitro. Methods Mol Biol 96: 177-182). Wounding was performed by drawing a microelectrode across the coverslip, producing a lesion of standard width. Phase contrast images were acquired using a ×5 objective on a Zeiss inverted microscope with an incubation chamber at 370 and 5% CO2. […] Migration was quantified by image analysis, measuring the change in wound area (pixels) using Image J software (NIH). […]

[4] = test system: granulation tissue; test: Granulation tissue area (H&E); format: in vivo, mice
Experimental: as §1, with “examined. […]” for “examined.”

[5] = test system: skin wounds; conditions: Qiu 2003; Coutinho 2005; cited from earlier work

In the case of “GTAATTGCGGCAGGAGGAATTGTTTCTGTC (antisense GTAATTGCGGCAGGAGGAATTGTTTCTGTC; in Pluronic F-127 gel, further chemistry not given here) [Cx43 asODN]”, the “Cx43 protein immunostaining in epidermis and dermis of wound edge” value ([1]; day 1, compared to controls) is reported as “very low levels”, the “Cx43 protein immunostaining of wound” value ([1]; day 2) is reported as “some Cx43 staining had returned to the dermis of the Cx43 asODN-treated wound but the level was still very low in the epidermis” and the “Cx43 staining, treated versus untreated” value ([1]; day 7) is reported as “no obvious difference”. For the same sequence, the “duration of Cx43 protein down-regulation in wound-site epidermis and dermis” value ([1]; delivered from Pluronic F-127 slow-release gel) was “at least 24 hours”, the “protein levels of Cx43 in the epidermis and dermis” value ([1]; within two hours of treatment, delivery from the time of injury) was “markedly reduced” and the “neutrophil numbers at wound site” value [2] was “significantly reduced”. For the same sequence, the “rate of wound closure in fibroblast cultures compared to controls” value [3] was “significantly (P=0.02) enhanced”, the “granulation tissue area versus untreated tissue” value ([4]; day 5, difference not significant) was “slightly smaller” and the “granulation tissue area versus control sODN treated wounds” value ([4]; days 7, 10 and 14 after wounding) was “significantly (*P<0.05; **P<0.01) smaller”. The “healing of skin wound and burn injury sites versus control sODN” value [5] was “significantly accelerated healing”.
